From paper PMC10648852, “Molecular drivers of resistance to sulbactam-durlobactam in contemporary clinical isolates of Acinetobacter baumannii” (Antimicrobial Agents and Chemotherapy, 2023)
Where two headings read alike, the source gives them in different places.

How the values were obtained:
Assay in all cases: microbe, parasite or virus in culture
[1] = system: ABC clinical isolates with SUL-DUR MIC > 4 µg/mL; assay type: cell-based, Acinetobacter baumannii-calcoaceticus complex
Summary of the method: (§1)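 SUL-DUR combines serially twofold-diluted sulbactam with durlobactam held at 4 µg/mL; MICs obtained by CLSI-standard broth microdilution and read against CLSI breakpoints when these exist.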

[2] = system: A. baumannii clinical isolates; assay type: cell-based; settings: Acinetobacter baumannii
Summary of the method: as §1

[3] = system: A. nosocomialis clinical isolate; assay type: cell-based; settings: Acinetobacter nosocomialis, isolate ARC7023 (IHMA 2118812), France, BSI, 2019, read-out: MIC
Summary of the method: as §1

[4] = system: A. pittii clinical isolates; assay type: cell-based; settings: Acinetobacter pittii
Summary of the method: as §1

## CC1(C)[C@H](C(=O)O)N2C(=O)C[C@H]2S1(=O)=O [sulbactam]
[1]; 64 non-clonal ABC isolates, 2023 CLSI breakpoints plus FDA breakpoint of 4 µg/mL for SUL-DUR
  %NS (% non-susceptibility): 100%
[1]; Acinetobacter
  MIC50: > 64 µg/mL
  MIC90: > 64 µg/mL
[1]; Acinetobacter, read-out: MIC Max
  MIC: > 64 µg/mL
[1]; Acinetobacter, read-out: MIC Min
  MIC: 8 µg/mL
[2]; isolate ARC6644 (IHMA 1420327), Mexico, UTI, 2016, read-out: MIC
  MIC: 64 µg/mL
[2]; isolate ARC6645 (IHMA 1435703), France, UTI, 2016, read-out: MIC
  MIC: > 64 µg/mL
[2]; isolate ARC6646 (IHMA 1484127), United States, RTI, 2016, read-out: MIC
  MIC: > 64 µg/mL
[2]; isolate ARC6647 (IHMA 1386786), Argentina, RTI, 2016, read-out: MIC
  MIC: > 64 µg/mL
[2]; isolate ARC6648 (IHMA 1407634), Spain, RTI, 2016, read-out: MIC
  MIC: 64 µg/mL
[2]; isolate ARC6650 (IHMA 1457337), Argentina, RTI, 2016, read-out: MIC
  MIC: 64 µg/mL
[2]; isolate ARC6652 (IHMA 1465642), Belgium, RTI, 2016, read-out: MIC
  MIC: > 64 µg/mL
[2]; isolate ARC6653 (IHMA 1308777), Vietnam, RTI, 2016, read-out: MIC
  MIC: > 64 µg/mL
[2]; isolate ARC6799 (IHMA 1562935), Spain, UTI, 2017, read-out: MIC
  MIC: > 64 µg/mL
[2]; isolate ARC6800 (IHMA 1557526), Turkey, RTI, 2017, read-out: MIC
  MIC: 64 µg/mL
[2]; isolate ARC6801 (IHMA 1662094), Thailand, RTI, 2017, read-out: MIC
  MIC: 64 µg/mL
[2]; isolate ARC6802 (IHMA 1557073), Spain, UTI, 2017, read-out: MIC
  MIC: > 64 µg/mL
[2]; isolate ARC6803 (IHMA 1589408), Belgium, UTI, 2017, read-out: MIC
  MIC: > 64 µg/mL
[2]; isolate ARC6805 (IHMA 1558650), United States, RTI, 2017, read-out: MIC
  MIC: 64 µg/mL
[2]; isolate ARC6808 (IHMA 1557168), Spain, RTI, 2017, read-out: MIC
  MIC: 16 µg/mL
[2]; isolate ARC6809 (IHMA 1699528), Guatemala, RTI, 2017, read-out: MIC
  MIC: > 64 µg/mL
[2]; isolate ARC6810 (IHMA 1699548), Guatemala, RTI, 2017, read-out: MIC
  MIC: > 64 µg/mL
[2]; isolate ARC6812 (IHMA 1699530), Guatemala, RTI, 2017, read-out: MIC
  MIC: > 64 µg/mL
[2]; isolate ARC6813 (IHMA 1699543), Guatemala, UTI, 2017, read-out: MIC
  MIC: > 64 µg/mL
[2]; isolate ARC6814 (IHMA 1699512), Guatemala, RTI, 2017, read-out: MIC
  MIC: > 64 µg/mL
[2]; isolate ARC6815 (IHMA 1699513), Guatemala, RTI, 2017, read-out: MIC
  MIC: > 64 µg/mL
[2]; isolate ARC6816 (IHMA 1699521), Guatemala, RTI, 2017, read-out: MIC
  MIC: > 64 µg/mL
[2]; isolate ARC6817 (IHMA 1699523), Guatemala, RTI, 2017, read-out: MIC
  MIC: > 64 µg/mL
[2]; isolate ARC6818 (IHMA 1683261), Thailand, RTI, 2017, read-out: MIC
  MIC: 64 µg/mL
[2]; isolate ARC6819 (IHMA 1683267), Thailand, RTI, 2017, read-out: MIC
  MIC: > 64 µg/mL
[2]; isolate ARC6820 (IHMA 1647876), Argentina, RTI, 2017, read-out: MIC
  MIC: > 64 µg/mL
[2]; isolate ARC6821 (IHMA 1699517), Guatemala, RTI, 2017, read-out: MIC
  MIC: > 64 µg/mL
[2]; isolate ARC6822 (IHMA 1637626), Guatemala, RTI, 2017, read-out: MIC
  MIC: > 64 µg/mL
[2]; isolate ARC6823 (IHMA 1620872), Greece, SSSI, 2017, read-out: MIC
  MIC: 32 µg/mL
[2]; isolate ARC6824 (IHMA 1625487), Argentina, BSI, 2017, read-out: MIC
  MIC: 64 µg/mL
[2]; isolate ARC6937 (IHMA 1562926), Spain, UTI, 2017, read-out: MIC
  MIC: > 64 µg/mL
[2]; isolate ARC6950 (IHMA 1820064), Israel, RTI, 2018, read-out: MIC
  MIC: 64 µg/mL
[2]; isolate ARC6953 (IHMA 1909827), Turkey, IAI, 2018, read-out: MIC
  MIC: 64 µg/mL
[2]; isolate ARC6954 (IHMA 1838192), Guatemala, SSSI, 2018, read-out: MIC
  MIC: > 64 µg/mL
[2]; isolate ARC6955 (IHMA 1825425), United States, RTI, 2018, read-out: MIC
  MIC: 16 µg/mL
[2]; isolate ARC7008 (IHMA 2009813), Thailand, BSI, 2019, read-out: MIC
  MIC: > 64 µg/mL
[2]; isolate ARC7009 (IHMA 2043611), United States, UTI, 2019, read-out: MIC
  MIC: > 64 µg/mL
[2]; isolate ARC7010 (IHMA 2043398), United States, RTI, 2019, read-out: MIC
  MIC: > 64 µg/mL
[2]; isolate ARC7011 (IHMA 2104553), Germany, RTI, 2019, read-out: MIC
  MIC: > 64 µg/mL
[2]; isolate ARC7012 (IHMA 2010001), Thailand, RTI, 2019, read-out: MIC
  MIC: > 64 µg/mL
[2]; isolate ARC7013 (IHMA 1962831), Argentina, RTI, 2019, read-out: MIC
  MIC: > 64 µg/mL
[2]; isolate ARC7014 (IHMA 2045328), Guatemala, IAI, 2019, read-out: MIC
  MIC: 64 µg/mL
[2]; isolate ARC7015 (IHMA 2045327), Guatemala, UTI, 2019, read-out: MIC
  MIC: > 64 µg/mL
[2]; isolate ARC7016 (IHMA 2148441), Brazil, BSI, 2019, read-out: MIC
  MIC: 64 µg/mL
[2]; isolate ARC7017 (IHMA 2148446), Brazil, BSI, 2019, read-out: MIC
  MIC: 64 µg/mL
[2]; isolate ARC7018 (IHMA 2045454), Guatemala, IAI, 2019, read-out: MIC
  MIC: > 64 µg/mL
[2]; isolate ARC7019 (IHMA 2114463), Thailand, RTI, 2019, read-out: MIC
  MIC: 32 µg/mL
[2]; isolate ARC7020 (IHMA 2045326), Guatemala, RTI, 2019, read-out: MIC
  MIC: 32 µg/mL
[2]; isolate ARC7021 (IHMA 1966347), Guatemala, RTI, 2019, read-out: MIC
  MIC: > 64 µg/mL
[2]; isolate ARC7022 (IHMA 2045319), Guatemala, IAI, 2019, read-out: MIC
  MIC: 32 µg/mL
[2]; isolate ARC7024 (IHMA 2059448), Turkey, RTI, 2019, read-out: MIC
  MIC: 64 µg/mL
[2]; isolate ARC7025 (IHMA 2002121), Spain, RTI, 2019, read-out: MIC
  MIC: 32 µg/mL
[2]; isolate ARC7026 (IHMA 2104494), Guatemala, BSI, 2019, read-out: MIC
  MIC: 32 µg/mL
[2]; isolate ARC7082 (IHMA 2160640), Belgium, BSI, 2020, read-out: MIC
  MIC: > 64 µg/mL
[2]; isolate ARC7083 (IHMA 2163687), United States, RTI, 2020, read-out: MIC
  MIC: 64 µg/mL
[2]; isolate ARC7084 (IHMA 2189596), Germany, RTI, 2020, read-out: MIC
  MIC: > 64 µg/mL
[2]; isolate ARC7085 (IHMA 2205747), Guatemala, IAI, 2020, read-out: MIC
  MIC: > 64 µg/mL
[2]; isolate ARC7086 (IHMA 2207563), Israel, RTI, 2020, read-out: MIC
  MIC: 32 µg/mL
[2]; isolate ARC7088 (IHMA 2215554), Turkey, BSI, 2020, read-out: MIC
  MIC: > 64 µg/mL
[2]; isolate ARC7089 (IHMA 2240345), Argentina, BSI, 2020, read-out: MIC
  MIC: > 64 µg/mL
[2]; isolate ARC7090 (IHMA 2244410), Poland, RTI, 2020, read-out: MIC
  MIC: > 64 µg/mL
[2]; isolate ARC7091 (IHMA 2244564), Australia, RTI, 2020, read-out: MIC
  MIC: > 64 µg/mL
[2]; isolate ARC7092 (IHMA 2258772), United States, BSI, 2020, read-out: MIC
  MIC: > 64 µg/mL
[2]; isolate ARC7093 (IHMA 2258783), United States, RTI, 2020, read-out: MIC
  MIC: 64 µg/mL
[2]; isolate ARC7094 (IHMA 2296423), Turkey, RTI, 2020, read-out: MIC
  MIC: > 64 µg/mL
[2]; isolate ARC7095 (IHMA 2320843), Turkey, BSI, 2020, read-out: MIC
  MIC: 64 µg/mL
[2]; isolate ARC7156 (IHMA 2455450), Greece, RTI, 2021, read-out: MIC
  MIC: > 64 µg/mL
[2]; isolate ARC7158 (IHMA 2523738), Italy, BSI, 2021, read-out: MIC
  MIC: > 64 µg/mL
[2]; isolate ARC7159 (IHMA 2456229), Malaysia, RTI, 2021, read-out: MIC
  MIC: > 64 µg/mL
[2]; isolate ARC7160 (IHMA 2458626), Thailand, RTI, 2021, read-out: MIC
  MIC: 64 µg/mL
[2]; isolate ARC7161 (IHMA 2429252), Ukraine, RTI, 2021, read-out: MIC
  MIC: 8 µg/mL
[2]; isolate ARC7162 (IHMA 2411847), United States, BSI, 2021, read-out: MIC
  MIC: > 64 µg/mL
[2]; isolate ARC7163 (IHMA 2477704), United States, BSI, 2021, read-out: MIC
  MIC: > 64 µg/mL
[3]
  MIC: 32 µg/mL
[4]; isolate ARC6949 (IHMA 1898982), Romania, RTI, 2018, read-out: MIC
  MIC: 64 µg/mL
[4]; isolate ARC6951 (IHMA 1776233), Philippines, RTI, 2018, read-out: MIC
  MIC: > 64 µg/mL
[4]; isolate ARC6952 (IHMA 1899008), Romania, RTI, 2018, read-out: MIC
  MIC: > 64 µg/mL
[4]; isolate ARC7087 (IHMA 2212062), Colombia, BSI, 2020, read-out: MIC
  MIC: 64 µg/mL
